# Measured values taken from patent publication US20230312587A1, “PTERIDINONE COMPOUNDS AND USES THEREOF” (Vertex Pharmaceutical Incorporated, priority 2018, published 2023).
# Where two headings read alike, the source gives them in different places.
# Experiments:
# [1] = molecular target: HEK293 membranes over-expressing WFS-1 (Homo sapiens (Human), UniProt O76024); assay: Radioligand displacement assay (tritiated Compound 136 probe); type: binding; details: displacement of tritiated Compound 136
# Sequence of HEK293 membranes over-expressing WFS-1 (O76024 whole entry): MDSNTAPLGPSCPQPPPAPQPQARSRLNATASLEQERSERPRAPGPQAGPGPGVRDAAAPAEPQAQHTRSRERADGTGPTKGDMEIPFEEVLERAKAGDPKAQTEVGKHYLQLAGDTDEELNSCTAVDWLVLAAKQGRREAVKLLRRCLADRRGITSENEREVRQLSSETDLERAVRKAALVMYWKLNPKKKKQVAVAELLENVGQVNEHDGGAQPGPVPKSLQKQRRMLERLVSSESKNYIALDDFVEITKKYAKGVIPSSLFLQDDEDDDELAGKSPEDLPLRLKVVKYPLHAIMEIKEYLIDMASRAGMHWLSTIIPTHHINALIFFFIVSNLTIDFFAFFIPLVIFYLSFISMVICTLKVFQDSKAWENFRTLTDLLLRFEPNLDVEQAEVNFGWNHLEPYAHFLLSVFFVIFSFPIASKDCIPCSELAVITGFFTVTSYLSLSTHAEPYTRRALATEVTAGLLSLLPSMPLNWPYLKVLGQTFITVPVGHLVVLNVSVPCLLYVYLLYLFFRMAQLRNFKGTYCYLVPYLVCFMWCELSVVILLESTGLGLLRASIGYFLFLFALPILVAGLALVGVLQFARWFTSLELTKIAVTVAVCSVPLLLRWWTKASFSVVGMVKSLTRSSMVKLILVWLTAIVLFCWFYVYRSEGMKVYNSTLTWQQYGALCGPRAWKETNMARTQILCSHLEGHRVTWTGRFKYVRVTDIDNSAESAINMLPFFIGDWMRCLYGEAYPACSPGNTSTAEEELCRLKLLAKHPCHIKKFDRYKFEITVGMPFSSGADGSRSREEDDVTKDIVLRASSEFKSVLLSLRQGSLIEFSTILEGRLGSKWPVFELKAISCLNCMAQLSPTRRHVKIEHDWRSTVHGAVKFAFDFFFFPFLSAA
# In short: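 WFS-1-overexpressing HEK293 membranes were preincubated 10 min with compound, then tritiated probe was added for 90 min at room temperature. Bound probe was collected by filtration on PEI-pretreated GF/B filters, washed and scintillation-counted. IC50 came from a 3-parameter fit of bound probe vs compound concentration.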
# [2] = test system: β-catenin-TCF-mediated reporter transcription activity in Colo 205 cells; assay: Colo 205 reporter assay (TCF/LEF luciferase); type: cell-based; details: five hours after addition of compound
# In short: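 Luciferase signal from a TCF/LEF-driven reporter, stably integrated in Colo 205 colon cancer cells, was measured 5 h after compound addition.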
# Colo-205 cells = assay: Calcium flux assay (FLIPR Calcium 5); type: cell-based; details: FLIPR Calcium 5, measured over 36 minutes
# Protocol: Compounds described herein induced ER stress by causing intracellular calcium flux. Calcium flux was measured in Colo-205 cells using the FLTPR® Calcium 5 Assay Kit according to manufacter's protocol (Molecular Devices, Cat. #R8186) on a FLIPR3 system (Molecular Devices). Calcium flux is measured over 36 minutes. The Colo-205 calcium flux assay data are summarized in Table 47: A<0.6 μM; 0.6 μM≤B<2.0 μM; 2.0 μM≤C<10.0 μM; D≥10.0 μM.
# [3] = Homo sapiens, COLO 205, 5 h, Colo 205 TCF/LEF luciferase reporter, read-out: TCF reporter Colo205 IC50
IC50 [1] [nM],"IC50 [2, 3] [nM]","EC50 (Colo-205 cells; Homo sapiens, COLO 205, 0.6 h) [nM]","IC50 ([2]; Homo sapiens, COLO 205, 5 h, Colo 205 cells with stably transfected TCF/LEF luciferase reporter, read-out: TCF reporter Colo205) [nM]",SMILES,"IC50 ([2]; Colo 205 TCF/LEF luciferase reporter, read-out: TCF reporter Colo205 IC50) [nM]",EC50 (Colo-205 cells) [nM]
600 to 3000,300 to 1000,600 to 2000,–,"Cc1nc(N[C@H]2C[C@@H](COc3ccc(C(F)(F)F)cn3)C2)nc2c1NC(=O)[C@H](C)N2C [Compound 356, (7S)-4,7,8-trimethyl-2-((cis-3-(((5-(trifluoromethyl)pyridin-2-yl)oxy)methyl)cyclobutyl)amino)-7,8-dihydropteridin-6(5H)-one]",–,–
60 to 600,< 300,600 to 2000,–,"Cc1nc(NCc2cnn(Cc3cc(C(F)(F)F)nn3C)c2)nc2c1NC(=O)[C@H](C1CC1)N2C [Compound 396, (7S)-7-Cyclopropyl-4,8-dimethyl-2-(((1-((1-methyl-3-(trifluoromethyl)-1H-pyrazol-5-yl)methyl)-1H-pyrazol-4-yl)methyl)amino)-7,8-dihydropteridin-6(5H)-one]",–,–
60 to 600,< 300,< 600,–,"Cc1nc(NCc2cnn(Cc3ccc(F)cc3)c2)nc2c1NC(=O)[C@H](C)N2C [Compound 4, (7S)-2-(((1-(4-fluorobenzyl)-1H-pyrazol-4-yl)methyl)amino)-4,7,8-trimethyl-7,8-dihydropteridin-6(5H)-one]",–,–
60 to 600,< 300,600 to 2000,–,"Cc1nc(N[C@H]2C[C@@H](COc3cc(F)c(F)c(F)c3)C2)nc2c1NC(=O)[C@H](C)N2C [Compound 257, (7S)-4,7,8-Trimethyl-2-((cis-3-((3,4,5-trifluorophenoxy)methyl)cyclobutyl)-amino)-7,8-dihydropteridin-6(5H)-one]",–,–
60 to 600,300 to 1000,600 to 2000,–,"Cc1nc(N[C@H]2C[C@H](Oc3ccc(F)cc3)C2)nc2c1N(C)C(=O)[C@H](C)N2C [Compound 250, (7S)-2-((trans-3-(4-fluorophenoxy)cyclobutyl)amino)-4,5,7,8-tetramethyl-7,8-dihydropteridin-6(5H)-one]",–,–
< 60,< 300,600 to 2000,–,"Cc1nc(NCc2cnn(Cc3cncc(F)c3)c2)nc2c1NC(=O)[C@H](C(C)C)N2C [Compound 415, (7S)-2-(((1-((5-fluoropyridin-3-yl)methyl)-1H-pyrazol-4-yl)methyl)amino)-7-isopropyl-4,8-dimethyl-7,8-dihydropteridin-6(5H)-one]",–,–
60 to 600,< 300,600 to 2000,–,"Cc1nc(NCc2cnn([C@@H](C)c3ccc(C(F)(F)F)nc3)c2)nc2c1NC(=O)[C@H](C)N2C [Compound 174, (7S)-4,7,8-Trimethyl-2-(((1-((S)-1-(6-(trifluoromethyl)pyridin-3-yl)ethyl)-1H-pyrazol-4-yl)methyl)amino)-7,8-dihydropteridin-6(5H)-one]",–,–
< 60,< 300,600 to 2000,–,"Cc1nc(NCc2cnn(Cc3ccc(C(F)(F)F)nc3)c2)nc2c1NC(=O)[C@H](C)N2C(C)C [Compound 385, (7S)-8-isopropyl-4,7-dimethyl-2-(((1-((6-(trifluoromethyl)pyridin-3-yl)methyl)-1H-pyrazol-4-yl)methyl)amino)-7,8-dihydropteridin-6(5H)-one]",–,–
< 60,–,600 to 2000,< 300,"Cc1nc(NCc2cnn(Cc3ccc(Cl)nc3)c2)nc2c1NC(=O)[C@H](C(C)C)N2C [Compound 409, (7S)-2-(((1-((6-chloropyridin-3-yl)methyl)-1H-pyrazol-4-yl)methyl)amino)-7-isopropyl-4,8-dimethyl-7,8-dihydropteridin-6(5H)-one]",–,–

SMILES,IC50 [1] [nM],"IC50 [2, 3] [nM]","EC50 (Colo-205 cells; Homo sapiens, COLO 205, 0.6 h) [nM]","IC50 ([2]; Homo sapiens, COLO 205, 5 h, Colo 205 cells with stably transfected TCF/LEF luciferase reporter, read-out: TCF reporter Colo205) [nM]","IC50 ([2]; Colo 205 TCF/LEF luciferase reporter, read-out: TCF reporter Colo205 IC50) [nM]",EC50 (Colo-205 cells) [nM]
"Cc1nc(NCc2cnn(Cc3ccc(C(F)(F)F)nc3)c2)nc2c1NC(=O)[C@H](C)N2C [Compound 136, (7S)-4,7,8-trimethyl-2-(((1-((6-(trifluoromethyl)pyridin-3-yl)methyl)-111-pyrazol-4-yl)methyl)amino)-7,8-dihydropteridin-6(5H)-one]",60 to 600,–,–,–,< 300,600 to 2000
